Data published in patent US20020002171A1, “Materials and methods for killing nematodes and nematode eggs” (priority 2000, published 2002).

System: Caenorhabditis elegans
Assay: C. elegans L1 nematicidal dose response in 96-well plates, 5 day visual score (Example 2; same procedure for Example 7, Table 3)
Assay type: in vivo
Parameters: key to 5 Day Visual Score V1 / 5 Day Visual Score V2 / 5 Day Visual Score V3 / 5 Day Visual Score V4 / 5 Day Visual Score V6 / 5 Day Visual Score V5 / Initial HTS Run Visual Score / Follow-up HTS Run Visual Score: Dead: only stiff L1s (no movement); Dead (L4): worms are dead, but at a later larval stage; majority of worms are L1 (based on size) worms move when plate is tapped; majority of worms are L2 (based on size); majority of worms are L3 (based on size); majority of worms are L4 (based on size); AD: majority of worms are adult; #AD: 5 adult worms or less; B!: sterile (0-25 progeny); B: low broodsize (25-100 progeny); ˜B: moderate broodsize (100-250 progeny); <: reduced broodsize (250-500 progeny); OK: no effect (˜1000+ progeny)
Conditions: for 5 Day Visual Score V1 / 5 Day Visual Score V2 / 5 Day Visual Score V3 / 5 Day Visual Score V4 / 5 Day Visual Score V5 / 5 Day Visual Score V6: dose response
In short: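 Scoring was by eye at 100× on day 5, after incubation at 20° C, of 20 C. elegans L1s per well fed 1% E. coli HB101 in NGM. Compound columns V1–V6 spanned 70 μM to 0.3 μM in 3-fold steps, with 1.4% DMSO in the top well and as control.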

SMILES	Follow-up HTS Run % Run	Follow-up HTS Run mOD	Initial HTS Run % Run	Initial HTS Run Visual Score	Initial HTS Run mOD	5 Day Visual Score V1 (dilution V1, day 5)	5 Day Visual Score V2 (dilution V2, day 5)	5 Day Visual Score V3 (dilution V3, day 5)	5 Day Visual Score V4 (dilution V4, day 5)	5 Day Visual Score V5 (dilution V5, day 5)	5 Day Visual Score V6 (dilution V6, day 5)	Follow-up HTS Run Visual Score	5 Day Visual Score V1 (dilution V1, 5 day)	5 Day Visual Score V2 (dilution V2, 5 day)	5 Day Visual Score V3 (dilution V3, 5 day)	5 Day Visual Score V4 (dilution V4, 5 day)	5 Day Visual Score V5 (dilution V5, 5 day)	5 Day Visual Score V6 (dilution V6, 5 day)
CCCCN(Cc1ccccc1)c1nc(NCc2c(F)cccc2F)ns1 [compound 298]	143%	231 mOD	125%	L2	137 mOD	L4#AD/B	˜B (moderate broodsize (100-250 progeny))	OK (no effect (˜1000+ progeny))	OK (no effect (˜1000+ progeny))	OK (no effect (˜1000+ progeny))	OK (no effect (˜1000+ progeny))	–	–	–	–	–	–	–
CCN(Cc1ccccc1)c1nc(NCc2c(F)cccc2F)ns1 [compound 299]	115%	185 mOD	105%	–	116 mOD	L4#AD/B	˜B (moderate broodsize (100-250 progeny))	˜B (moderate broodsize (100-250 progeny))	OK (no effect (˜1000+ progeny))	OK (no effect (˜1000+ progeny))	OK (no effect (˜1000+ progeny))	L4	–	–	–	–	–	–
C=CCN(CC=C)c1nc(NCc2c(F)cccc2F)ns1 [compound 300]	108%	174 mOD	108%	–	119 mOD	Dead(L2/L3)	–	< (reduced broodsize (250-500 progeny))	OK (no effect (˜1000+ progeny))	OK (no effect (˜1000+ progeny))	OK (no effect (˜1000+ progeny))	L4/AD/B!	–	–	–	–	–	–
CN(Cc1ccccc1)c1nc(NCc2c(F)cccc2F)ns1 [compound 301]	127%	204 mOD	111%	B!-Few Eggs	122 mOD	–	< (reduced broodsize (250-500 progeny))	OK (no effect (˜1000+ progeny))	OK (no effect (˜1000+ progeny))	OK (no effect (˜1000+ progeny))	OK (no effect (˜1000+ progeny))	B! (sterile (0-25 progeny))	–	–	–	–	–	–
FC(F)(F)c1ccc(CNc2nsc(N3CCN(c4ncccn4)CC3)n2)cc1 [compound 303]	111%	178 mOD	96%	L3	106 mOD	Dead	L1	Dead	OK (no effect (˜1000+ progeny))	< (reduced broodsize (250-500 progeny))	–	–	–	–	–	–	–	–
Cc1cccc(C)c1N1CCN(c2nc(NCc3ccc(C(F)(F)F)cc3)ns2)CC1 [compound 304]	107%	172 mOD	96%	L4/AD/B!	106 mOD	L1	OK (no effect (˜1000+ progeny))	OK (no effect (˜1000+ progeny))	OK (no effect (˜1000+ progeny))	OK (no effect (˜1000+ progeny))	< (reduced broodsize (250-500 progeny))	–	–	–	–	–	–	–
CCN(c1nc(NCc2ccc(C(F)(F)F)cc2)ns1)C1CCCCC1 [compound 305]	112%	181 mOD	102%	–	112 mOD	–	< (reduced broodsize (250-500 progeny))	OK (no effect (˜1000+ progeny))	OK (no effect (˜1000+ progeny))	OK (no effect (˜1000+ progeny))	OK (no effect (˜1000+ progeny))	L4	–	–	–	–	–	–
CCCCCCCCCCCCCCCCCCN(C)c1nc(NCc2ccc(C(F)(F)F)cc2)ns1 [compound 306]	102%	165 mOD	107%	–	118 mOD	L1	L1	–	OK (no effect (˜1000+ progeny))	OK (no effect (˜1000+ progeny))	OK (no effect (˜1000+ progeny))	L1	–	–	–	–	–	–
CCCCC(CC)CN(CC(CC)CCCC)c1nc(NCc2ccc(C(F)(F)F)cc2)ns1 (centres unmarked) [compound 307]	110%	177 mOD	100%	L4/AD/B	110 mOD	Dead	–	OK (no effect (˜1000+ progeny))	OK (no effect (˜1000+ progeny))	OK (no effect (˜1000+ progeny))	OK (no effect (˜1000+ progeny))	B! (sterile (0-25 progeny))	–	–	–	–	–	–
CCCCN(CC)c1nc(NCc2ccc(C(F)(F)F)cc2)ns1 [compound 308]	130%	210 mOD	112%	–	123 mOD	L1	–	#AD/˜B	OK (no effect (˜1000+ progeny))	OK (no effect (˜1000+ progeny))	OK (no effect (˜1000+ progeny))	–	–	–	–	–	–	–
CCCCN(Cc1ccccc1)c1nc(NCc2ccc(C(F)(F)F)cc2)ns1 [compound 309]	119%	191 mOD	106%	L4/AD/B!	117 mOD	L1	B (low broodsize (25-100 progeny))	OK (no effect (˜1000+ progeny))	OK (no effect (˜1000+ progeny))	OK (no effect (˜1000+ progeny))	OK (no effect (˜1000+ progeny))	–	–	–	–	–	–	–
CCN(Cc1ccccc1)c1nc(NCc2ccc(C(F)(F)F)cc2)ns1 [compound 310]	116%	187 mOD	102%	–	112 mOD	–	–	–	–	–	–	–	Dead	B (low broodsize (25-100 progeny))	˜B (moderate broodsize (100-250 progeny))	#AD/˜B	OK (no effect (˜1000+ progeny))	OK (no effect (˜1000+ progeny))
CC(C)CN(CC(C)C)c1nc(NCc2ccc(C(F)(F)F)cc2)ns1 [compound 311]	109%	176 mOD	98%	L4/AD/B!	108 mOD	–	–	–	–	–	–	B! (sterile (0-25 progeny))	L1	< (reduced broodsize (250-500 progeny))	OK (no effect (˜1000+ progeny))	OK (no effect (˜1000+ progeny))	OK (no effect (˜1000+ progeny))	OK (no effect (˜1000+ progeny))
C=CCN(CC=C)c1nc(NCc2ccc(C(F)(F)F)cc2)ns1 [compound 312]	115%	185 mOD	104%	–	114 mOD	–	–	–	–	–	–	–	L1	–	˜B (moderate broodsize (100-250 progeny))	OK (no effect (˜1000+ progeny))	OK (no effect (˜1000+ progeny))	OK (no effect (˜1000+ progeny))
CCOC(=O)CCN(Cc1ccccc1)c1nc(NCc2ccc(C(F)(F)F)cc2)ns1 [compound 313]	106%	170 mOD	97%	L2 - (Dead L3)	107 mOD	–	–	–	–	–	–	–	Dead(L2/L3)	Dead(L3)	–	< (reduced broodsize (250-500 progeny))	OK (no effect (˜1000+ progeny))	OK (no effect (˜1000+ progeny))
CN(CCc1ccccc1)c1nc(NCc2ccc(C(F)(F)F)cc2)ns1 [compound 314]	103%	166 mOD	106%	–	117 mOD	–	–	–	–	–	–	–	L1	L4#AD/B! and L1	L1	–	–	OK (no effect (˜1000+ progeny))
